Measured values taken from patent US20210222123A1, “IN VITRO EXPANSION OF DOPAMINERGIC SUBTYPE NEURONAL PROGENITORS DERIVED FROM PLURIPOTENT STEM CELLS” (Wisconsin Alumni Research Foundation, priority 2019, published 2021).
Where two headings read alike, the source gives them in different places.

Assays:
[1] = test system: DA NPCs; type: cell-based
Excerpt: FGF8 and SHH are not sufficient for expanding DA NPCs: To determine if and how the DA NPCs can be expanded, a CKK8-based assay for quantifying cell numbers was first established. This assay was based on the absorbance readout from a plate reader to estimate the total cell number by monitoring mitochondrial activity, which was used for primary screening/testing for candidate molecules and validating the hits (FIG. 2A).
The optimal seeding density was first determined by plating increasing numbers of DA NPCs to each well. […] The absorbance reached a plateau when the seeding density was beyond 120,000 cell/well (FIG. 2B), and 20,000 cells/well were used for subsequent assays. Using this optimal seeding density (20,000/well), well-to-well and plate-to-plate variation (FIG. 2C) was examined. There were no obvious well-to-well and plate-to-plate variations (FIG. 2C).
Chemical screening identifies an additional compound that expands DA NPCs: The chemical screening platform was set up using FGF8+SHH as a basal condition, FGF8+SHH+DMSO as a control, and FGF8+SHH+1 as the screening mode. With the standardized screening platform (FIG. 3A), 1,200 small molecules (Tocris Total) were screened and the top 5 candidate compounds that increased the absorbance by >2 folds over the median absorbance (FIG. 3B) were identified. […] induced a 5-fold expansion on top of FGF8+SHH (FIG. 3D). We referred to it as the “FSW” cocktail.
Generation and expansion of DA NPCs: DA NPCs were generated as previously described, in particular FGF8b was added from Day 9 (Chen et al., 2016; Xi et al., 2012) (FIG. 1A). The generated DA NPCs were passaged at 10^6 cells/well on a MATRIGEL™ (1:30; PBS diluted and store in 4° C. for use in 2 weeks) coated 6-well plate as the first passage. After overnight, incubation, the medium was switched to the FSCW cocktail in the expansion medium. FSCW cocktail contained FGF8b (50 ng/ml; Peprotech), SHH (25 ng/ml; Peprotech), CHIR (0.6 μM; Tocris) and WNT-C59 (0.5 μM: Tocris). The expansion medium consisted of DF12 basal medium (ThermoFisher), B27 (100×; ThermoFisher), Glutamax (100×; ThermoFisher) and NEAA (100×; ThermoFisher). The cells were passaged every 5 days at the ratio of 1:3. To digest the cells, the cultures were incubated in PBS-diluted EDTA (1:100; Thermo) at 37° C. for 5 minutes before lifting the cells by adding 2 ml DF12 basal medium using cell lifter (Coring) and collecting the cells into a centrifuge tube. Following centrifugation at 1000 rpm for 2 minutes and removal of the supernatant, the cells were resuspended in the expansion medium with FSCW cocktail and seeded onto the coated plates as described above. Y27632 (10 uM; Tocris) was added overnight to improve cell survival.

[2] = test system: DA NPCs; experiment: DA NPC identity by immunostaining of DA marker co-expression; type: cell-based, human
Protocol: Immunostaining and Quantification: Cells on coverslips/wells were rinsed with PBS and fixed in 4% paraformaldehyde for 20 minutes. After rinsing with PBS twice, cells were treated with 0.3% Triton for 10 min followed by 10% donkey serum for 1 hour before incubating with primary antibodies overnight at 4° C. Cells were then incubated for 1 hour at room temperature with fluorescently-conjugated secondary antibodies (Life Technologies). The nuclei were stained with Hoechst (Ho) (Sigma-Aldrich). Images were taken with a Nikon A1R-Si laser-scanning confocal microscope (Nikon, Tokyo, Japan). The primary antibodies used include the followings: Goat anti-OTX2 (1:1000, R&D), Rabbit anti-LMX1A (1:500, Abcam), […], Goat anti-FOXA2 (1:500, Santa Cruz), Mouse anti-EN1 (1:200, 4G11-C, DSHB), Rat anti-Corin (1:100, R&D Systems), Rabbit anti-TH (1:500, Pel-Freez Biologicals), Mouse anti-TUJ1 (1:500, Santa Cruz Biotechnology), Mouse anti-MAP2 (1:200, Sigma-Aldrich), Rabbit anti-GIRK2 (1:80, Alomone Labs), Rabbit anti-SOX6 (1:1000, Sigma-Aldrich), Mouse anti-Stem121 (1:500, Clonetech). For quantifying DA NPC populations, cells were counted among the total Hoechst labeled nuclei. Three independent cultures (n=3) were analyzed.

[3] = FGF2 alone, 10 to 200 ng/ml, one passage in 5 days

Compound: Cc1c[nH]c(-c2cnc(NCCNc3ccc(C#N)cn3)nc2-c2ccc(Cl)cc2Cl)n1 [CHIR, CHIR99021]
- expansion of DA NPCs ([1]; CHIR alone, range of doses): expanded the DA NPCs
- expansion of DA NPCs ([1]; CHIR at a low dose (0.6 μM)): expanded the DA NPCs
- dose window in which DA NPC identity (co-expression of LMX1A and OTX2) was retained ([2]; CHIR alone): 0.6 µM
- DA identity ([2]; CHIR alone, concentrations lower or higher than 0.6 μM): loss of DA identity
- cellular identity of DA NPCs ([2]; CHIR at a low dose (0.6 μM)): did not alter their cellular identity

Compound: FGF2: growth factor reported for expanding pan-NPCs or specified NPCs
- cell proliferation [1, 3]: induced dramatic cell proliferation
- DA NPC identity (co-expression of LMX1A and OTX2) [2, 3]: loss of co-expression of LMX1A and OTX2

Compound: Cc1cc(-c2ccc(CC(=O)Nc3ccc(-c4cccnc4)cc3)cc2)ccn1 [WNT-C59]
- expansion on top of FGF8+SHH ([1]; WNT-C59 "At 2" (unit not given), FSW cocktail): 5 fold
- concentration of maximum effect in the cocktail ([1]; WNT-C59 titration in FSCW cocktail): 0.5 µM
- DA identity after induced expansion (co-expression of LMX1A and OTX2) ([2]; on top of FGF8+SHH, 1 passage, 5 days, ratio 1:3): maintained DA identity
